The values that follow come from ChEMBL document CHEMBL1142966, “Enhanced antileukemic activity of the novel complex 2,5-dihydroxybenzoate molybdenum(VI) against 2,5-dihydroxybenzoate, polyoxometalate of Mo(VI), and tetraphenylphosphonium in the human HL-60 and K562 leukemic cell lines” (J Med Chem, 2007).

Common to all, as to type: cell-based
In series [1] the test system is K562. Briefly: Cytotoxicity against human K562 cells at 1000 ug/mL by trypan blue assay after 24 hrs. As to conditions: k562, 24 h.
Series [2] concerns K562. Briefly: Cytotoxicity against human K562 cells at 100 ug/mL by trypan blue assay after 72 hrs. As to conditions: k562, 72 h.
In series [3] the test system is K562. Briefly: Cytotoxicity against human K562 cells at 10000 ug/mL by trypan blue assay after 24 hrs. As to conditions: k562, 24 h.
For series [4], the system named is HL-60. Briefly: Cytotoxicity against human HL60 cells at 1000 ug/mL by trypan blue assay after 48 hrs. As to conditions: hl-60, 48 h.
Series [5] has as its system K562. Briefly: Cytotoxicity against human K562 cells at 1000 ug/mL by trypan blue assay after 48 hrs. The conditions noted are these: k562, 48 h.
For series [6], the system named is K562. Briefly: Cytotoxicity against human K562 cells at 1000 ug/mL by trypan blue assay after 72 hrs. The conditions noted are these: k562, 72 h.
Series [7] relates to HL-60. Briefly: Cytotoxicity against human HL60 cells at 10 ug/mL by trypan blue assay after 24 hrs. As to conditions: hl-60, 24 h.
Series [8] relates to K562. Briefly: Cytotoxicity against human K562 cells at 10 ug/mL by trypan blue assay after 72 hrs. As to conditions: k562, 72 h.
Series [9] deals with HL-60. Briefly: Cytotoxicity against human HL60 cells at 10 ug/mL by trypan blue assay after 72 hrs. As to conditions: hl-60, 72 h.
Series [10] relates to HL-60. Briefly: Cytotoxicity against human HL60 cells at 10000 ug/mL by trypan blue assay after 48 hrs. As to conditions: hl-60, 48 h.
In series [11] the test system is K562. Briefly: Cytotoxicity against human K562 cells at 100 ug/mL by trypan blue assay after 48 hrs. The conditions noted are these: k562, 48 h.
The test system of series [12] is K562. Briefly: Cytotoxicity against human K562 cells at 10000 ug/mL by trypan blue assay after 48 hrs. As to conditions: k562, 48 h.
Series [13] deals with HL-60. Briefly: Cytotoxicity against human HL60 cells at 10000 ug/mL by trypan blue assay after 72 hrs. The conditions noted are these: hl-60, 72 h.
In series [14] the test system is HL-60. Briefly: Cytotoxicity against human HL60 cells at 100 ug/mL by trypan blue assay after 24 hrs. As to conditions: hl-60, 24 h.
Series [15] has as its system HL-60. Briefly: Cytotoxicity against human HL60 cells at 10 ug/mL by trypan blue assay after 48 hrs. As to conditions: hl-60, 48 h.
Series [16] relates to K562. Briefly: Cytotoxicity against human K562 cells at 100 ug/mL by trypan blue assay after 24 hrs. As to conditions: k562, 24 h.
The test system of series [17] is HL-60. Briefly: Cytotoxicity against human HL60 cells at 1000 ug/mL by trypan blue assay after 72 hrs. The conditions noted are these: hl-60, 72 h.
For series [18], the system named is K562. Briefly: Cytotoxicity against human K562 cells at 10000 ug/mL by trypan blue assay after 72 hrs. As to conditions: k562, 72 h.
For series [19], the system named is HL-60. Briefly: Cytotoxicity against human HL60 cells at 100 ug/mL by trypan blue assay after 48 hrs. The conditions noted are these: hl-60, 48 h.
The subject of series [20] is K562. Briefly: Cytotoxicity against human K562 cells at 10 ug/mL by trypan blue assay after 48 hrs. As to conditions: k562, 48 h.
In series [21] the test system is K562. Briefly: Cytotoxicity against human K562 cells at 10 ug/mL by trypan blue assay after 24 hrs. As to conditions: k562, 24 h.
In series [22] the test system is HL-60. Briefly: Cytotoxicity against human HL60 cells at 10000 ug/mL by trypan blue assay after 24 hrs. The conditions noted are these: hl-60, 24 h.
Series [23] relates to HL-60. Briefly: Cytotoxicity against human HL60 cells at 1000 ug/mL by trypan blue assay after 24 hrs. The conditions noted are these: hl-60, 24 h.
In series [24] the test system is HL-60. Briefly: Cytotoxicity against human HL60 cells at 100 ug/mL by trypan blue assay after 72 hrs. The conditions noted are these: hl-60, 72 h.

Take `[Cl-].c1ccc([P+](c2ccccc2)(c2ccccc2)c2ccccc2)cc1` [TETRAPHENYLPHOSPHONIUM CHLORIDE]: the Activity with K562 [1], in the series with K562 [2], in the series on K562 [3], with HL-60 [4], with K562 [5] and in the series on K562 [6] was 100% in each case. Besides, the Activity is listed as 1% in the series on HL-60 [7]; 100% in the series on K562 [8]; 100% in the series with HL-60 [9]; 100% in the series on HL-60 [10]; 100% with K562 [11]; 100% with K562 [12]. In addition, the Activity is 100% in the series with HL-60 [13]; 4.5% in the series on HL-60 [14]; 100% with HL-60 [15]; 41.8% in the series with K562 [16]; 100% with HL-60 [17]; 100% with K562 [18]. The Activity with HL-60 [19] was 100%; with K562 [20], 100%; with K562 [21], 56.8%; in the series on HL-60 [22], 100%; with HL-60 [23], 100%; with HL-60 [24], 100%.
